Legend:
ADAMTS4 = biological target: T1, ADAMTS4 (Homo sapiens, UniProt O75173); test: Selectivity assay for ADAMTS-7 modulators (FRET), ADAMTS4; format: biochemical; conditions: 50 nM enzyme (R&D 4307-AD), 1 μM Dabcyl/Edans FRET substrate, 120 min at 32° C.
T1 construct: purchased R&D 4307-AD
T1 sequence (O75173 213-685 limits assumed): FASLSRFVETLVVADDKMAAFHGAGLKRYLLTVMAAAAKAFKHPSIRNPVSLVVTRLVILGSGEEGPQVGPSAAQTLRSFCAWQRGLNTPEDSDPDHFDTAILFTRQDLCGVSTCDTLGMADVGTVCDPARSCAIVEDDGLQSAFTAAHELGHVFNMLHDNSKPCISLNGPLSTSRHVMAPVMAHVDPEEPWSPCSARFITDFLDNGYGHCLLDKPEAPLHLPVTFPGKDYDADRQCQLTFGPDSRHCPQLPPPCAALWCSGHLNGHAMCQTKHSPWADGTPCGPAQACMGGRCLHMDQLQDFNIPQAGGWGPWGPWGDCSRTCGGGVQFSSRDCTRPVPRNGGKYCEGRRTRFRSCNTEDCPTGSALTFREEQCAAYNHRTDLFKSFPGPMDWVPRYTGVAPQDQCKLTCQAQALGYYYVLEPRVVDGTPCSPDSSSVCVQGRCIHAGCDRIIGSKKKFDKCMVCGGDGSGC
How it was run: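 Enzyme in 50 mM Tris pH 7.5, 150 mM NaCl, 10 mM CaCl2, 0.05% Brij, preincubated with compound in DMSO; reaction started with FRET substrate. Fluorescence increase read after 120 min at 32° C; IC50 from percent inhibition versus compound concentration.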

[1] = biological target: T2, Purified recombinant ADAMTS-7 (rat prodomain/human catalytic domain, SEQ ID No. 01 or 02) (Homo sapiens, UniProt Q9UKP4); test: Assay for ADAMTS-7 enzymatic activity (FRET substrate cleavage); format: biochemical; conditions: FRET substrate SEQ ID No. 11, 120 min at 32° C.; read-out: ADAMTS7-IC50
T2 construct: rat ADAMTS-7 signal peptide + prodomain (rat 1-217, Q1EHB3) (N); 2xStrep tag (C); 6xHis tag (C); made in house; host or cells: Expi293 cells
T2 sequence (Q9UKP4 237-537): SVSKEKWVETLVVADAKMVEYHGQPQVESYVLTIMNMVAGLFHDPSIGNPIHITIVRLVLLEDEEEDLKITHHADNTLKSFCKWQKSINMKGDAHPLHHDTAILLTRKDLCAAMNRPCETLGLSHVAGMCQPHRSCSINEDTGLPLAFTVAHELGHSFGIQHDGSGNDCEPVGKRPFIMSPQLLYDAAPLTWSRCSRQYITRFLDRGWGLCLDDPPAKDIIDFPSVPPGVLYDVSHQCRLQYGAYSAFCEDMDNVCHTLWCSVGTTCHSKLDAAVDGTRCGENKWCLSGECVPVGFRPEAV
How it was run: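 IC50 values were fitted from percent inhibition across test-compound concentrations. Fluorescence gain (ex 485, em 520 nm) reports cleavage of a thrombospondin-1 (275-289) FRET peptide with QXL520 quencher, after 120 min at 32 °C. The enzyme, about 20 nM, was in HEPES pH 8.0 buffer with NaCl, CaCl2, ZnCl2 and Brij.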

Row | SMILES | IC50 (ADAMTS4) [nM] | IC50 [1] [nM]
1 | O=C1NC(=O)C(CNC(=O)c2cnn(-c3ccccc3)n2)(c2ccccn2)N1 (stereo not drawn) [Example 38, ent-N-{[2,5-dioxo-4-(pyridin-2-yl)imidazolidin-4-yl]methyl}-2-phenyl-2H-1,2,3-triazole-4-carboxamide] | 2800 | 10
2 | C[C@H](NC(=O)c1cnn(-c2ccccc2)n1)C1(C2CC2)NC(=O)NC1=O (stereo partly drawn) [Example 40, ent-N-((1S)-1-(4-Cyclopropyl-2,5-dioxoimidazolidin-4-yl)ethyl)-2-phenyl-2H-1,2,3-triazole-4-carboxamide] | 25000 | 980
3 | O=C1NC(=O)[C@](CNC(=O)c2coc(-c3ccc(F)cc3)n2)(C2CC2)N1 [Example 41, N-{[(4R)-4-cyclopropyl-2,5-dioxoimidazolidin-4-yl]methyl}-2-(4-fluorophenyl)-1,3-oxazole-4-carboxamide] | 1700 | 55
4 | O=C1NC(=O)[C@](CNC(=O)c2nnc(-c3ccc(F)cc3)o2)(C2CC2)N1 [Example 42, N-{[(4R)-4-cyclopropyl-2,5-dioxoimidazolidin-4-yl]methyl}-5-(4-fluorophenyl)-1,3,4-oxadiazole-2-carboxamide] | 12000 | 350
5 | O=C1NC(=O)[C@](CNC(=O)c2cnn(-c3ccccc3)n2)(C2CC2)N1 [Example 45, N-{[(4R)-4-cyclopropyl-2,5-dioxoimidazolidin-4-yl]methyl}-2-phenyl-2H-1,2,3-triazole-4-carboxamide] | 1450 | 69
6 | O=C1NC(=O)[C@](CNC(=O)c2cnn(-c3ccccn3)n2)(C2CC2)N1 [Example 47, N-{[(4R)-4-cyclopropyl-2,5-dioxoimidazolidin-4-yl]methyl}-2-(pyridin-2-yl)-2H-1,2,3-triazole-4-carboxamide] | 7650 | 98
7 | O=C1NC(=O)[C@](CNC(=O)c2cnn(-c3ccccc3)c2)(C2CC2)N1 [Example 56, N-{[(4R)-4-cyclopropyl-2,5-dioxoimidazolidin-4-yl]methyl}-1-phenyl-1H-pyrazole-4-carboxamide] | 1800 | 129
8 | O=C1NC(=O)[C@](CNC(=O)c2cnc(-c3ccccc3)o2)(C2CC2)N1 [Example 59, N-{[(4R)-4-cyclopropyl-2,5-dioxoimidazolidin-4-yl]methyl}-2-phenyl-1,3-oxazole-5-carboxamide] | 11300 | 550
9 | O=C1NC(=O)[C@](CNC(=O)c2cnn(-c3ccccn3)n2)(C2CC2)N1 [Example 60, N-{[(4R)-4-cyclopropyl-2,5-dioxoimidazolidin-4-yl]methyl}-2-(pyridin-2-yl)-2H-1,2,3-triazole-4-carboxamide] | 8400 | 259

Next, values leading:

Row | IC50 (ADAMTS4) [nM] | IC50 [1] [nM] | SMILES
10 | 13000 | 320 | CC1(C)CC1C1(CNC(=O)c2cnn(-c3ccccc3)n2)NC(=O)NC1=O (stereo not drawn) [Example 43, ent-N-{[4-(2,2-dimethylcyclopropyl)-2,5-dioxoimidazolidin-4-yl]methyl}-2-phenyl-2H-1,2,3-triazole-4-carboxamide]
11 | 5000 | 250 | CC(C)(C)CC1(CNC(=O)c2cnn(-c3ccccc3)n2)NC(=O)NC1=O (stereo not drawn) [Example 44, ent-N-{[4-(2,2-dimethylpropyl)-2,5-dioxoimidazolidin-4-yl]methyl}-2-phenyl-2H-1,2,3-triazole-4-carboxamide]
12 | 17000 | 190 | CC(CO)C1(CNC(=O)c2cnn(-c3ccccc3)n2)NC(=O)NC1=O (stereo not shown) [Example 57]
13 | 10000 | 76 | CC(C)C1(CNC(=O)c2cnn(-c3ccccc3)n2)NC(=O)NC1=O (stereo not drawn) [Example 70, ent-N-[(2,5-dioxo-4-(propan-2-yl)imidazolidin-4-yl)methyl]-2-phenyl-2H-1,2,3-triazole-4-carboxamide]
14 | 13100 | 47 | CC(C)(C)C1(CNC(=O)c2cnn(-c3ccccc3)n2)NC(=O)NC1=O (stereo not drawn) [Example 71, ent-N-[(4-tert-butyl-2,5-dioxoimidazolidin-4-yl)methyl]-2-phenyl-2H-1,2,3-triazole-4-carboxamide]
